From US20110166121A1 (LG LIFE SCIENCES LTD., priority 2008, published 2011)
“And” between values parts separate entries of the source, which are not always exact repeats. Identical values can stand only once.

How the values were obtained:
[1] = target: T1, Human P2Y12 receptor (Homo sapiens, UniProt Q9H244); test: Human P2Y12 receptor cell membrane binding assay with [3H] 2-Mes-ADP; details: 1 nM [3H] 2-Mes-ADP, membranes of HEK cells expressing P2Y12 receptor; read-out: Binding activity (IC50)
T1 construct: expressed in transfected cells; host or cells: HEK cells
T1 sequence (Q9H244 whole entry): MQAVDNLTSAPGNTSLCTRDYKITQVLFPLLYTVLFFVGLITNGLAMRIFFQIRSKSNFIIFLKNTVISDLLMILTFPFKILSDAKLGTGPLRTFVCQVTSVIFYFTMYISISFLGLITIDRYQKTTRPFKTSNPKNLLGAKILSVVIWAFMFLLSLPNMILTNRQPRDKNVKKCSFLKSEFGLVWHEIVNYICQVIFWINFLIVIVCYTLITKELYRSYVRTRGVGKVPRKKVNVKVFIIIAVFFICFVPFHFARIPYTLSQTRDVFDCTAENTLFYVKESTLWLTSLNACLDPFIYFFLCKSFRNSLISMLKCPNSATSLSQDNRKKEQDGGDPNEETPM
In short: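 Membranes from HEK cells expressing human P2Y12 were incubated with compound and 1 nM [3H]2-MeS-ADP for 1 h at room temperature. Bound radioactivity was collected by GF/B filtration.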

[2] = system: Human platelet aggregation caused by ADP; test: Inhibition of ADP-induced platelet aggregation (Mimic-human PRP); assay type: cell-based; details: 20 μM ADP, human platelet concentrate diluted with PPP, absorption at 595 nm
In short: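 Human PRP diluted with PPP to 3–4×10^8 platelets/mL was preincubated 20 min at room temperature with compound (0.01–30 μM, DMSO), then stimulated with 20 μM ADP. Aggregation read as A595 increase at 3 min versus 0 and 20 μM ADP controls; Ki from sigmoidal non-linear regression.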

SMILES	IC50 [1] [nM]	Ki [2]
CCCc1cc2c(N3CCn4c(nnc4C(F)(F)F)C3)nc(N3CCN(C4CCCC4)CC3)nc2s1 [Example 1-40, 7-[2-(4-Cyclopentyl-piperazin-1-yl)-6-propyl-thieno[2,3-d]pyrimidin-4-yl]-3-trifluoromethyl-5,6,7,8-tetrahydro-[1,2,4]triazolo[4,3-a]pyrazine]	200	175 nM
CCCc1cc2c(N3CCn4c(nnc4C(F)(F)F)C3)nc(N3CC(=O)C(N)C3)nc2s1 (stereo not shown) [Example 1-115, 4-Amino-1-[6-propyl-4-(3-trifluoromethyl-5,6-dihydro-8H-[1,2,4]triazolo[4,3-a]pyrazin-7-yl)-thieno[2,3-d]pyrimidin-2-yl]-pyrrolidin-3-one]	110	16 nM
CCCc1cc2c(N3CCn4c(nnc4C(F)(F)F)C3)nc(CN3CC[C@@H](O)C3)nc2s1 [Example 4-21, (R)-1-[6-Propyl-4-(3-trifluoromethyl-5,6-dihydro-8H-[1,2,4]triazolo[4,3-a]pyrazin-7-yl)thieno[2,3-d]pyrimidin-2-ylmethyl]pyrrolidin-3-ol]	1110	140 nM
CCCc1cc2c(N3CCn4c(nnc4C(F)(F)C(F)(F)F)C3)nc(OCC(O)CO)nc2s1 (stereo not shown) [Example 6-8, 3-[4-(3-Pentafluoroethyl-5,6-dihydro-8H-[1,2,4]triazolo[4,3-a]pyrazin-7-yl)-6-propyl-thieno[2,3-d]pyrimidin-2-yloxy]-propane-1,2-diol]	130	95 nM
CCCc1cc2c(N3CCn4c(nnc4C(F)(F)F)C3)nc(OCCNS(=O)(=O)C(F)(F)F)nc2s1 [Example 3-69, C,C,C-Trifluoro-N-{2-[6-propyl-4-(3-trifluoromethyl-5,6-dihydro-8H-[1,2,4]triazolo[4,3-a]pyrazin-7-yl)-thieno[2,3-d]pyrimidin-2-yloxy]-ethyl}-methanesulfonamide]	180	4100 nM
CCCc1cc2c(N3CCn4c(nnc4C(F)(F)F)C3)nc(Oc3ccc(CCC(=O)O)cc3)nc2s1 [Example 3-42, 3-{4-[6-Propyl-4-(3-trifluoromethyl-5,6-dihydro-8H-[1,2,4]triazolo[4,3-a]pyrazin-7-yl)-thieno[2,3-d]pyrimidin-2-yloxy]-phenyl}-propionic acid]	250	660 nM
CCCc1cc2c(N3CCn4c(nnc4C(F)(F)F)C3)nc(N3CCc4ccccc43)nc2s1 [Example 1-71, 7-[2-(2,3-Dihydro-indol-1-yl)-6-propyl-thieno[2,3-d]pyrimidin-4-yl]-3-trifluoromethyl-5,6,7,8-tetrahydro-[1,2,4]triazolo[4,3-a]pyrazine]	526	> 4000 nM
CCCc1cc2c(N3CCn4c(C)nnc4C3)nc(N3CCNC(=O)C3)nc2s1 [Example 6-14, 4-[4-(3-Methyl-5,6-dihydro-8H-[1,2,4]triazolo[4,3-a]pyrazin-7-yl)-6-propyl-thieno[2,3-d]pyrimidin-2-yl]-piperazin-2-one]	322	260 nM
CCCc1cc2c(N3CCn4c(nnc4C(F)(F)F)C3)nc(N3CC[C@H](C(=O)O)C3)nc2s1 [Example 1-57, (S)-1-[6-Propyl-4-(3-trifluoromethyl-5,6-dihydro-8H-[1,2,4]triazolo[4,3-a]pyrazin-7-yl)-thieno[2,3-d]pyrimidin-2-yl]-pyrrolidine-3-carboxylic acid]	15	54 nM
CCCc1cc2c(N3CCn4c(nnc4C(F)(F)F)C3)nc(N[C@@H]3CCNC3)nc2s1 [Example 1-130, [6-Propyl-4-(3-trifluoromethyl-5,6-dihydro-8H-[1,2,4]triazolo[4,3-a]pyrazin-7-yl)-thieno[2,3-d]pyrimidin-2-yl]-(R)-pyrrolidin-3-yl-amine]	320	132 nM
CCCc1cc2c(N3CCn4c(nnc4C(F)(F)F)C3)nc(N3CCCCC3CO)nc2s1 (stereo not shown) [Example 1-28, {1-[6-Propyl-4-(3-trifluoromethyl-5,6-dihydro-8H-[1,2,4]triazolo[4,3-a]pyrazin-7-yl)-thieno[2,3-d]pyrimidin-2-yl]-piperidin-2-yl}-methanol]	40	176 nM
CCCc1cc2c(N3CCn4c(C)nnc4C3)nc(OCCCO)nc2s1 [Example 6-17, 3-[4-(3-Methyl-5,6-dihydro-8H-[1,2,4]triazolo[4,3-a]pyrazin-7-yl)-6-propyl-thieno[2,3-d]pyrimidin-2-yloxy]-propan-1-ol]	750	400 nM
CCCc1cc2c(N3CCn4c(nnc4C(F)(F)F)C3)nc(COc3ccccc3C(=O)OC)nc2s1 [Example 4-24, 2-[6-Propyl-4-(3-trifluoromethyl-5,6-dihydro-8H-[1,2,4]triazolo[4,3-a]pyrazin-7-yl)thieno[2,3-d]pyrimidin-2-ylmethoxy]benzoic acid methyl ester]	700	8100 nM
CCCc1cc2c(N3CCn4c(nnc4C(F)(F)F)C3)nc(OCc3cccnc3)nc2s1 [Example 3-24, 7-[6-Propyl-2-(pyridin-3-ylmethoxy)-thieno[2,3-d]pyrimidin-4-yl]-3-trifluoromethyl-5,6,7,8-tetrahydro-[1,2,4]triazolo[4,3-a]pyrazine]	160	1480 nM
CCCc1cc2c(N3CCn4c(nnc4C(F)(F)F)C3)nc(N3CCN(CCO)CC3)nc2s1 [Example 1-5, 2-{4-[6-Propyl-4-(3-trifluoromethyl-5,6-dihydro-8H-[1,2,4]triazolo[4,3-a]pyrazin-7-yl)-thieno[2,3-d]pyrimidin-2-yl]-piperazin-1-yl}-ethanol]	96	160 nM and 210 nM
CCCCc1cc2c(N3CCn4c(nnc4C(F)(F)F)C3)nc(N3CCN(C)CC3)nc2s1 [Example 2-16, 7-[6-Butyl-2-(4-methyl-piperazin-1-yl)-thieno[2,3-d]pyrimidin-4-yl]-3-trifluoromethyl-5,6,7,8-tetrahydro-[1,2,4]triazolo[4,3-a]pyrazine]	188	817 nM
CCCc1cc2c(N3CCn4c(nnc4C(F)(F)F)C3)nc(N3CCc4cc(OC)c(OC)cc4C3)nc2s1 [Example 1-66, 6,7-Dimethoxy-2-[6-propyl-4-(3-trifluoromethyl-5,6-dihydro-8H-[1,2,4]triazolo[4,3-a]pyrazin-7-yl)-thieno[2,3-d]pyrimidin-2-yl]-1,2,3,4-tetrahydro-isoquinoline]	200	1400 nM
CCCc1cc2c(N3CCn4c(nnc4C(F)(F)F)C3)nc(N3CC[C@H](OC(C)=O)C3)nc2s1 [Example 1-22, Acetic Acid (S)-1-[6-propyl-4-(3-trifluoromethyl-5,6-dihydro-8H-[1,2,4]triazolo[4,3-a]pyrazin-7-yl)-thieno[2,3-d]pyrimidin-2-yl]-pyrrolidin-3-yl ester]	65	130 nM
CCCc1cc2c(N3CCn4c(C)nnc4C3)nc(OCCO)nc2s1 [Example 6-16, 2-[4-(3-Methyl-5,6-dihydro-8H-[1,2,4]triazolo[4,3-a]pyrazin-7-yl)-6-propyl-thieno[2,3-d]pyrimidin-2-yloxy]-ethanol]	310	61 nM
CCCc1cc2c(N3CCn4c(nnc4C(F)(F)F)C3)nc(OCC(CO)CO)nc2s1 [Example 3-2, 2-[6-Propyl-4-(3-trifluoromethyl-5,6-dihydro-8H-[1,2,4]triazolo[4,3-a]pyrazin-7-yl)-thieno[2,3-d]pyrimidin-2-yloxymethyl]-propane-1,3-diol]	200	17 nM
CCCc1cc2c(N3CCn4c(nnc4C(F)(F)F)C3)nc(OC3CCCC3)nc2s1 [Example 3-15, 7-(2-Cyclopentyloxy-6-propyl-thieno[2,3-d]pyrimidin-4-yl)-3-trifluoromethyl-5,6,7,8-tetrahydro-[1,2,4]triazolo[4,3-a]pyrazine]	53	300 nM
CCCc1cc2c(N3CCn4c(nnc4C(F)(F)F)C3)nc(OCCNC(=O)CN)nc2s1 [Example 3-65, 2-Amino-N-{2-[6-propyl-4-(3-trifluoromethyl-5,6-dihydro-8H-[1,2,4]triazolo[4,3-a]pyrazin-7-yl)-thieno[2,3-d]pyrimidin-2-yloxy]-ethyl}-acetamide]	180	13 nM
CCCc1cc2c(N3CCn4c(nnc4C(F)(F)F)C3)nc(N3CC[C@@H](C(=O)OC(C)C)C3)nc2s1 [Example 1-62, (R)-1-[6-Propyl-4-(3-trifluoromethyl-5,6-dihydro-8H-[1,2,4]triazolo[4,3-a]pyrazin-7-yl)-thieno[2,3-d]pyrimidin-2-yl]-pyrrolidine-3-carboxylic acid isopropyl ester]	320	200 nM
CCCc1cc2c(N3CCn4c(nnc4C(F)(F)F)C3)nc(Oc3cccnc3)nc2s1 [Example 3-29, 7-[6-Propyl-2-(pyridin-3-yloxy)-thieno[2,3-d]pyrimidin-4-yl]-3-trifluoromethyl-5,6,7,8-tetrahydro-[1,2,4]triazolo[4,3-a]pyrazine]	220	150 nM
CCCc1cc2c(N3CCn4c(nnc4C(F)(F)F)C3)nc(N3CCOC(=O)C3)nc2s1 [Example 1-35, 4-[6-Propyl-4-(3-trifluoromethyl-5,6-dihydro-8H-[1,2,4]triazolo[4,3-a]pyrazin-7-yl)-thieno[2,3-d]pyrimidin-2-yl]-morpholin-2-one]	135	54 nM
CCCc1cc2c(N3CCn4c(nnc4C(F)(F)F)C3)nc(OCC3CCCO3)nc2s1 (stereo not shown) [Example 3-6, 7-[6-Propyl-2-(tetrahydro-furan-2-ylmethoxy)-thieno[2,3-d]pyrimidin-4-yl]-3-trifluoromethyl-5,6,7,8-tetrahydro-[1,2,4]triazolo[4,3-a]pyrazine]	690	140 nM
